# Measured values from ChEMBL document CHEMBL3885861, “Open TG-GATES”.
# Organism: Rattus norvegicus
# Test: Open TG-GATES - Regimen: Single
# Type: toxicity, organism-based, Sprague-Dawley
# Design: regimen Single, gender Male, age 6 weeks
# Conditions: in vivo, ip, 450 mg/kg, route intraperitoneal injection, dose level Middle; for APTT / Bas / Eos / Fbg / Hb / Ht / Lym / MCH / MCHC / MCV / Mono / Neu / PT / Plat / RBC / Ret / WBC: tissue Blood; for KIDNEY_L / KIDNEY_R / KIDNEY_TOTAL: tissue Kidney; for LIVER: tissue Liver; for A/G / ALP / ALT / AST / BUN / CRE / Ca / Cl / DBIL / GLC / IP / K / LDH / Na / PL / RALB / TBIL / TC / TG / TP / gamma-GTP: tissue Plasma
structure (smiles),measurement,setting,value
CCCCS(=N)(=O)CCC(N)C(=O)O (configuration not stated) [BUTHIONINE SULFOXIMINE],TERMINAL_BW,3 h,218.6 g
same,APTT,3 h,16.6 s
same,Bas,3 h,0%
same,Eos,3 h,0.8%
same,Fbg,3 h,216.4 mg/dL
same,Hb,3 h,13.3 g/dL
same,Ht,3 h,39.8%
same,Lym,3 h,69%
same,MCH,3 h,21.9 pg
same,MCHC,3 h,33.3%
same,MCV,3 h,65.7 fL
same,Mono,3 h,7.8%
same,Neu,3 h,22.2%
same,PT,3 h,12.1 s
same,Plat,3 h,112.2 x10_4/uL
same,RBC,3 h,606.8 x10_4/ul
same,Ret,3 h,8.5%
same,WBC,3 h,79.6 x10_2/uL
same,KIDNEY_L,3 h,1 g
same,KIDNEY_R,3 h,1 g
same,KIDNEY_TOTAL,3 h,2 g
same,LIVER,3 h,10.2 g
same,A/G,3 h,2.1
same,ALP,3 h,794 IU/L
same,ALT,3 h,42.6 IU/L
same,AST,3 h,72 IU/L
same,BUN,3 h,14 mg/dL
same,CRE,3 h,0.5 mg/dL
same,Ca,3 h,11 mg/dL
same,Cl,3 h,104 meq/L
same,DBIL,3 h,0.062 mg/dL
same,GLC,3 h,191.2 mg/dL
same,IP,3 h,10.5 mg/dL
same,K,3 h,4.5 meq/L
same,LDH,3 h,93 IU/L
same,Na,3 h,140.2 meq/L
same,PL,3 h,137.4 mg/dL
same,RALB,3 h,3.7 g/dL
same,TBIL,3 h,0.3 mg/dL
same,TC,3 h,71.4 mg/dL
same,TG,3 h,62.8 mg/dL
same,TP,3 h,5.5 g/dL
same,gamma-GTP,3 h,1.8 IU/L
same,TERMINAL_BW,6 h,217.2 g
same,APTT,6 h,16.6 s
same,Bas,6 h,0%
same,Eos,6 h,0.8%
same,Fbg,6 h,221.2 mg/dL
same,Hb,6 h,13.4 g/dL
same,Ht,6 h,40%
same,Lym,6 h,57.6%
same,MCH,6 h,22 pg
same,MCHC,6 h,33.5%
same,MCV,6 h,65.6 fL
same,Mono,6 h,4.6%
same,Neu,6 h,37.2%
same,PT,6 h,11 s
same,Plat,6 h,108.9 x10_4/uL
same,RBC,6 h,609.8 x10_4/ul
same,Ret,6 h,8.3%
same,WBC,6 h,96.1 x10_2/uL
same,KIDNEY_L,6 h,1 g
same,KIDNEY_R,6 h,1 g
same,KIDNEY_TOTAL,6 h,2 g
same,LIVER,6 h,9.4 g
same,A/G,6 h,2
same,ALP,6 h,837.2 IU/L
same,ALT,6 h,32 IU/L
same,AST,6 h,68.8 IU/L
same,BUN,6 h,11.4 mg/dL
same,CRE,6 h,0.7 mg/dL
same,Ca,6 h,10.8 mg/dL
same,Cl,6 h,104.8 meq/L
same,DBIL,6 h,0.016 mg/dL
same,GLC,6 h,193.2 mg/dL
same,IP,6 h,10 mg/dL
same,K,6 h,4.6 meq/L
same,LDH,6 h,100.6 IU/L
same,Na,6 h,140.4 meq/L
same,PL,6 h,129.8 mg/dL
same,RALB,6 h,3.5 g/dL
same,TBIL,6 h,0.3 mg/dL
same,TC,6 h,73.2 mg/dL
same,TG,6 h,43.2 mg/dL
same,TP,6 h,5.3 g/dL
same,gamma-GTP,6 h,1.2 IU/L
same,TERMINAL_BW,9 h,210.3 g
same,APTT,9 h,17 s
same,Bas,9 h,0%
same,Eos,9 h,0.8%
same,Fbg,9 h,253 mg/dL
same,Hb,9 h,13.3 g/dL
same,Ht,9 h,40%
same,Lym,9 h,63.2%
same,MCH,9 h,21.4 pg
same,MCHC,9 h,33.2%
same,MCV,9 h,64.5 fL
same,Mono,9 h,3.8%
same,Neu,9 h,32.2%
same,PT,9 h,11 s
same,Plat,9 h,113.1 x10_4/uL
same,RBC,9 h,620 x10_4/ul
same,Ret,9 h,8.4%
same,WBC,9 h,93.4 x10_2/uL
same,KIDNEY_L,9 h,1 g
same,KIDNEY_R,9 h,1 g
same,KIDNEY_TOTAL,9 h,1.9 g
same,LIVER,9 h,8.4 g
same,A/G,9 h,2.1
same,ALP,9 h,759.2 IU/L
same,ALT,9 h,31.2 IU/L
same,AST,9 h,61 IU/L
same,BUN,9 h,11.8 mg/dL
same,CRE,9 h,0.6 mg/dL
same,Ca,9 h,11 mg/dL
same,Cl,9 h,107 meq/L
same,DBIL,9 h,0.01 mg/dL
same,GLC,9 h,196.2 mg/dL
same,IP,9 h,9.6 mg/dL
same,K,9 h,4.8 meq/L
same,LDH,9 h,79.4 IU/L
same,Na,9 h,139.2 meq/L
same,PL,9 h,144.2 mg/dL
same,RALB,9 h,3.7 g/dL
same,TBIL,9 h,0.3 mg/dL
same,TC,9 h,84.4 mg/dL
same,TG,9 h,25 mg/dL
same,TP,9 h,5.5 g/dL
same,gamma-GTP,9 h,1.2 IU/L
same,TERMINAL_BW,24 h,229.8 g
same,APTT,24 h,16.6 s
same,Bas,24 h,0%
same,Eos,24 h,1.2%
same,Fbg,24 h,254 mg/dL
same,Hb,24 h,13.2 g/dL
same,Ht,24 h,39.6%
same,Lym,24 h,70.8%
same,MCH,24 h,21.4 pg
same,MCHC,24 h,33.2%
same,MCV,24 h,64.4 fL
same,Mono,24 h,9.4%
same,Neu,24 h,18.8%
same,PT,24 h,11.5 s
same,Plat,24 h,126.4 x10_4/uL
same,RBC,24 h,616.6 x10_4/ul
same,Ret,24 h,8.8%
same,WBC,24 h,85.5 x10_2/uL
same,KIDNEY_L,24 h,1 g
same,KIDNEY_R,24 h,1.1 g
same,KIDNEY_TOTAL,24 h,2.1 g
same,LIVER,24 h,11.1 g
same,A/G,24 h,1.8
same,ALP,24 h,1015.4 IU/L
same,ALT,24 h,30.2 IU/L
same,AST,24 h,60 IU/L
same,BUN,24 h,19.2 mg/dL
same,CRE,24 h,0.5 mg/dL
same,Ca,24 h,11.1 mg/dL
same,Cl,24 h,104.6 meq/L
same,DBIL,24 h,0.008 mg/dL
same,GLC,24 h,196.6 mg/dL
same,IP,24 h,8.3 mg/dL
same,K,24 h,4.4 meq/L
same,LDH,24 h,98 IU/L
same,Na,24 h,140 meq/L
same,PL,24 h,149.4 mg/dL
same,RALB,24 h,3.7 g/dL
same,TBIL,24 h,0.3 mg/dL
same,TC,24 h,80.6 mg/dL
same,TG,24 h,95.2 mg/dL
same,TP,24 h,5.8 g/dL
same,gamma-GTP,24 h,1.6 IU/L
